One may read the inhibition as the relative decrease from the control value, in per cent. A low value points to little suppression.

Data on 25 compounds can be found in patent EP0677039B1, “CYCLOBUTANE DERIVATIVES AS INHIBITORS OF […] SYNTHETASE AND PROTEIN […]” (Abbott Laboratories, priority 1993, dated 1995).

The target of one test is T1, Rat liver microsomal squalene synthetase (Rattus norvegicus, UniProt Q02769).
T1 construct: Rat liver microsome, the source of enzyme; from tissue; host or cells: rat liver microsomes
T1 sequence (Q02769 1-416): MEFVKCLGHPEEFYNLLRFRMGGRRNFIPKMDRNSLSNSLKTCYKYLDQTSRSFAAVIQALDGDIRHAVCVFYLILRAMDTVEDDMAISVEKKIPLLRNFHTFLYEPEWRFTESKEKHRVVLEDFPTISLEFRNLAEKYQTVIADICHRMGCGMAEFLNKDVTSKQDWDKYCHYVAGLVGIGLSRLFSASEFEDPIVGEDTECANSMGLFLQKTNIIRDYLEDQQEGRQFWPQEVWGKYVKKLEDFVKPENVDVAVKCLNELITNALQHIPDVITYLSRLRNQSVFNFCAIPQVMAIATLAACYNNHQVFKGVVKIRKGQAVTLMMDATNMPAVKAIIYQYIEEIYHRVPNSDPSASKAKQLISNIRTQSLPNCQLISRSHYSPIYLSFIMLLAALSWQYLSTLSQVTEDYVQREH
Briefly: In vitro inhibition of squalene synthetase. The class given is biochemical. The following applies: 10 µM test compound; rat liver microsomes, labelled farnesyl pyrophosphate, 10 minutes at 37 °C; compared to controls with no test compound. The gist of the method: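 Percent inhibition at 10 µM (or 1 µM), against controls without compound, was scored from radioactive squalene formed from labelled farnesyl pyrophosphate by rat liver microsomal enzyme. Incubations were kept oxygen-free with nitrogen and stopped with ethanolic KOH; squalene was isolated by hexane extraction and an alumina column.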
For orientation: Microsomes from liver hold many membrane-bound enzymes, among them those of drug oxidation.
`CCCN(Cc1ccc(Oc2ccccc2)cc1)C(=O)[C@@H]1[C@H](C(=O)O)[C@@H](C(=O)OC)[C@H]1C(=O)N(CCC)Cc1ccc(Oc2ccccc2)cc1` (relative stereo) [Example 95, (1α,2β,3β,4α)-1,2-Di[N-propyl-N-(4-phenoxybenzyl)aminocarbonyl]-3-(methoxycarbonyl)cyclobutane-4-carboxylic Acid] displayed an inhibition at 10 µM of 78%.

For `CCCN(Cc1ccc(Oc2cccc(C)c2)cc1)C(=O)C1C(C(=O)O)C(C(=O)O)C1C(=O)N(CCC)Cc1ccc(Oc2cccc(C)c2)cc1` (stereo not drawn) [Example 87B, (1α,2β,3β,4α)-1,2-Di{N-propyl-[4-(3'-methyl)phenoxybenzyl]aminocarbonyl}cyclobutane-3,4-dicarboxylic acid], the inhibition at 10 µM is 72%.

On to `CCCN(Cc1ccc(Nc2ccccc2)cc1)C(=O)[C@H]1[C@@H](C(=O)O)[C@H](C(=O)O)[C@@H]1C(=O)N(CCC)Cc1ccc(Nc2ccccc2)cc1` [Example 67C, (1α,2β,3β,4α)-1,2-Di[N-propyl-N-(4-phenylaminobenzyl)aminocarbonyl]cyclobutane-3,4-dicarboxylic acid], for which the inhibition at 10 µM stood at 87%.

Compound `O=C(O)C1C(C(=O)O)C(C(=O)N(Cc2ccccc2)Cc2ccccc2)C1C(=O)N(Cc1ccccc1)Cc1ccccc1` (stereo not drawn) [Example 121, (1α,2β,3β,4α)-1,2-Di[N,N-dibenzylaminocarbonyl]cyclobutane-3,4-dicarboxylic acid] gave an inhibition at 10 µM of 44%.

Compound `CCCN(Cc1ccc(Oc2ccccc2)cc1)C(=O)C1C(C(=O)O)C(C(=O)NCC(=O)O)C1C(=O)N(CCC)Cc1ccc(Oc2ccccc2)cc1` (stereo not drawn) [Example 106, (1α,2β,3β,4α)-1,2-Di[N-propyl-N-(4-phenoxybenzyl)aminocarbonyl]cyclobutane-3-4-dicarboxylic acid mono-Glycine amide] yielded an inhibition at 10 µM of 92%.

The compound `CN(C(=O)[C@H]1[C@@H](C(=O)O)[C@H](C(=O)O)[C@@H]1C(=O)N(C)c1ccc(-c2ccccc2)cc1)c1ccc(-c2ccccc2)cc1` [Example 22, (1α,2β,3β,4α)-1,2-Di[N-methyl-N-biphenylamino-carbonyl]cyclobutane-2,4-dicarboxylic acid] had an inhibition at 10 µM of 20%.

The compound `CCCN(Cc1ccc(Oc2ccccc2)cc1)C(=O)[C@@H]1[C@H](C(=O)O)[C@@H](C(=O)NO)[C@H]1C(=O)N(CCC)Cc1ccc(Oc2ccccc2)cc1` (relative stereo) [Example 98C, (1α,2β,3β,4α)-1,2-Di[N-propyl-N-(4-phenoxybenzyl)aminocarbonyl]-3-[(hydroxyamino)carbonyl]cyclobutane-4-carboxylic Acid] returned an inhibition at 10 µM of 84%.

For the compound `O=C(O)[C@H]1[C@H](C(=O)O)[C@H](C(=O)N(Cc2ccc(Oc3ccccc3)cc2)C2CC2)[C@H]1C(=O)N(Cc1ccc(Oc2ccccc2)cc1)C1CC1` [Example 30, (1α,2β,3β,4α)-1,2-Di[N-cyclopropyl-N-(4-phenoxybenzyl)aminocarbonyl]cyclobutane-3,4-dicarboxylic acid], the inhibition at 10 µM was 67%.

As to `CCCN(Cc1ccc(Oc2ccccc2)cc1)C(=O)[C@@H]1[C@H](C(=O)O)[C@@H](NS(=O)(=O)C(F)(F)F)[C@H]1C(=O)N(CCC)Cc1ccc(Oc2ccccc2)cc1` (relative stereo) [Example 100C, (1α,2β,3β,4α)-1,2-Di[N-propyl-N-(4-phenoxybenzyl)aminocarbonyl]-3-[(trifluoromethanesulfonyl)amino]cyclobutane-4-carboxylic Acid], the inhibition at 10 µM was found to be 84%.

`CCCN(Cc1ccc(Oc2ccccc2)cc1)C(=O)[C@H]1[C@@H](C(=O)O)[C@H](C(=O)O)[C@@H]1C(=O)NCc1ccc(Oc2ccccc2)cc1` [Example 64D, (1α,2β,3β,4α)-1-[N-Propyl-N-(4-phenoxybenzyl)aminocarbonyl]-2-[N-(4-phenoxybenzyl)aminocarbonyl]cyclobutane-3,4-dicarboxylic acid] displayed an inhibition at 10 µM of 45%.

`CCCN(Cc1ccc(Oc2ccccc2)c(C)c1)C(=O)C1C(C(=O)O)C(C(=O)O)C1C(=O)N(CCC)Cc1ccc(Oc2ccccc2)c(C)c1` (stereo not drawn) [Example 89C, (1α,2β,3β,4α)-1-2-Di{N-propyl-[3-methyl-4-phenoxybenzyl]aminocarbonyl}cyclobutane-3,4-dicarboxylic acid] came in with an inhibition at 10 µM of 88%.

As for `CCCN(Cc1ccc(Oc2ccccc2)s1)C(=O)C1C(C(=O)O)C(C(=O)O)C1C(=O)N(CCC)Cc1ccc(Oc2ccccc2)s1` (stereo not drawn) [Example 83B, (1α,2β,3β,4α)-1,2-Di[N-propyl-N-(5-phenoxythien-2-ylmethyl)aminocarbonyl]cyclobutane-3,4-dicarboxylic acid], the inhibition at 10 µM is 85%.

The compound `CCCN(Cc1ccc(Oc2ccccc2)cc1)C(=O)C1C(C=NO)C(C(=O)O)C1C(=O)N(CCC)Cc1ccc(Oc2ccccc2)cc1` (stereo not drawn) [Example 71C, (1α,2β,3β,4α)-1,2-Di[N-propyl-N-(4-phenoxybenzyl)aminocarbonyl]-4-[(hydroxyimino)methyl]-cyclobutane-3-carboxylic acid] showed an inhibition at 10 µM of 77%.

`CCCN(Cc1ccc(Oc2ccccc2)cc1)C(=O)[C@@H]1[C@H](C(N)=O)[C@@H](C(=O)O)[C@H]1C(=O)N(CCC)Cc1ccc(Oc2ccccc2)cc1` (relative stereo) [Example 99B, (1α,2β,3β,4α)-3-(Amino)carbonyl-1,2-di[N-propyl-N-(4-phenoxybenzyl)aminocarbonyl]cyclobutane-4-carboxylic Acid]: at 10 µM the inhibition was 80%.

With `CN(Cc1cccc(Oc2ccccc2)c1)C(=O)[C@H]1[C@@H](C(=O)O)[C@H](C(=O)O)[C@@H]1C(=O)N(C)Cc1cccc(Oc2ccccc2)c1` [Example 18, (1α,2β,3β,4α)-1,2-Di[N-methyl-N-(3-phenoxybenzyl)aminocarbonyl]cyclobutane-3,4-dicarboxylic acid], the inhibition at 10 µM was found to be 55%.

Still in this test, the particulars now being: values marked * in Table 1: 1 µM test compound; rat liver microsomes, labelled farnesyl pyrophosphate, 10 minutes at 37 °C.
`O=C(O)C1C(C(=O)O)C(C(=O)N(Cc2ccc(Oc3ccccc3)cc2)Cc2cccs2)C1C(=O)N(Cc1ccc(Oc2ccccc2)cc1)Cc1cccs1` (stereo not drawn) [Example 45, (1α,2β,3β,4α)-1,2-Di[N-(thien-2-ylmethyl)-N-(4-phenoxybenzyl)aminocarbonyl]cyclobutane-3,4-dicarboxylic acid]: 1 µM produced 50% inhibition.

“(1α,2β,3β,4α)-1,2-Di[N-propyl-N-(4-phenoxybenzyl)aminocarbonyl]cyclobutane-3,4-dicarboxylic acid mono-l-Norleucine amide [Example 113]”: the “% Inhibition at 1 µM” value is on record as 31* %.

For the compound `C=CCN(Cc1ccc(Oc2ccccc2)cc1)C(=O)[C@H]1[C@@H](C(=O)O)[C@H](C(=O)O)[C@@H]1C(=O)N(CC=C)Cc1ccc(Oc2ccccc2)cc1` [Example 29, (1α,2β,3β,4α)-1,2-Di[N-allyl-N-(4-phenoxybenzyl)aminocarbonyl]cyclobutane-3,4-dicarboxylic acid], the inhibition at 1 µM was found to be 72%.

The compound `CCCCC(NC(=O)[C@@H]1[C@@H](C(=O)O)[C@@H](C(=O)N(CCC)Cc2ccc(Oc3ccccc3)cc2)[C@@H]1C(=O)N(CCC)Cc1ccc(Oc2ccccc2)cc1)C(=O)O` (single isomer, unassigned) [Example 104A, (1α,2β,3β,4α)-1,2-Di[N-propyl-N-(4-phenoxybenzyl)aminocarbonyl]cyclobutane-3,4-dicarboxylic acid Mono-Norleucine Amide] registered an inhibition at 1 µM of 70%.

The compound `CCCN(Cc1ccc(Oc2ccccc2)cc1)C(=O)CC1C(CC(=O)N(CCC)Cc2ccc(Oc3ccccc3)cc2)C(C(=O)O)C1C(=O)O` (stereo not drawn) [Example 127C, (1α,2β,3β,4α)-1,2-Di-[N-propyl-N-(4-phenoxybenzyl)aminocarbonylmethyl]-cyclobutane-3,4-dicarboxylic acid] yielded an inhibition at 1 µM of 68%.

With `O=C(O)C1C(C(=O)O)C(C(=O)N(Cc2ccc(Oc3ccccc3)cc2)CC2CC2)C1C(=O)N(Cc1ccc(Oc2ccccc2)cc1)CC1CC1` (single isomer, unassigned; (-)) [Example 129B, (-)-(1α,2β,3β,4α)-1,2-Di[N-cyclopropylmethyl-N-(4-phenoxybenzyl)aminocarbonyl]cyclobutane-3,4-dicarboxylic acid], the inhibition at 1 µM was determined as 92%.

On to `CCCN(Cc1ccc(Oc2nccs2)cc1)C(=O)C1C(C(=O)O)C(C(=O)O)C1C(=O)N(CCC)Cc1ccc(Oc2nccs2)cc1` (stereo not shown) [Example 85], for which the inhibition at 1 µM came to 56%.

In turn, `O=C(O)C1C(C(=O)O)C(C(=O)N(Cc2ccc(Oc3ccccc3)cc2)C2CCC2)C1C(=O)N(Cc1ccc(Oc2ccccc2)cc1)C1CCC1` (stereo not drawn) [Example 48, (1α,2β,3β,4α)-1,2-Di[N-cyclobutyl-N-(4-phenoxybenzyl)aminocarbonyl]cyclobutane-3,4-dicarboxylic acid] gave an inhibition at 1 µM of 79%.

`CCCN(Cc1ccc(Oc2ccccc2)cc1)C(=O)C1C(C(=O)O)C(C(=O)Nc2nnn[nH]2)C1C(=O)N(CCC)Cc1ccc(Oc2ccccc2)cc1` (stereo not drawn) [Example 92B, (1α,2β,3β,4a)-1,2-Di[N-propyl-N-(4-phenoxybenzyl)aminocarbonyl]cyclobutane-3-[N-(5-tetrazolyl)]carboxamide-4-carboxylic acid] came in with an inhibition at 1 µM of 80%.

`CCCN(Cc1ccc(Oc2ccccc2)cc1)C(=O)C1C(NC(=O)CCC(=O)O)C(C(=O)O)C1C(=O)N(CCC)Cc1ccc(Oc2ccccc2)cc1` (stereo not drawn) [Example 75B, (1α,2β,3β,4α)-1,2-Di[N-propyl-N-(4-phenoxybenzyl)aminocarbonyl]-4-(3-carboxypropionylamino)cyclobutane-3-carboxylic acid]: the inhibition at 1 µM turned out to be 73%.
